The subject of one assay is buckwheat, wild. Briefly: Test D pre-/postemergence herbicide test. The assay is classed as in vivo, Polygonum convolvulus. Particulars: for Plant response rating: Buckwheat, Wild, scale 0 to 100; for Plant response rating, Buckwheat, Wild: scale 0 to 100 (0 no effect, 100 complete control). The text has this:
(§1) Seeds of plant species selected from bluegrass (annual bluegrass, Poa annua), blackgrass (Alopecurus myosuroides), canarygrass (littleseed canarygrass, Phalaris minor), chickweed (common chickweed, Stellaria media), galium (catchweed bedstraw, Galium aparine), bromegrass, downy (downy bromegrass, Bromus tectorum), field poppy (Papaver rhoeas), field violet (Viola arvensis), foxtail, green (green foxtail, Setaria viridis), deadnettle (henbit deadnettle, Lamium amplexicaule), ryegrass, Italian (Italian ryegrass, Lolium multiflorum), kochia (Kochia scoparia), lambsquarters (Chenopodium album), oilseed rape (Brassica napus), pigweed (Amaranthus retroflexus), chamomile (scentless chamomile, Matricaria inodora), Russian thistle (Salsola kali), speedwell (bird's-eye speedwell, Veronica persica), barley, spring (spring barley, Hordeum vulgare), wheat, spring (spring wheat, Triticum aestivum), buckwheat, wild (wild buckwheat, Polygonum convolvulus), mustard, wild (wild mustard, Sinapis arvensis), oat, wild (wild oat, Avena fatua), radish, wild (wild radish, Raphanus raphanistrum), […]), barley, winter (winter barley, Hordeum vulgare), and wheat, winter (winter wheat, Triticum aestivum) were planted into a silt loam soil and treated preemergence with test chemicals formulated in a non-phytotoxic solvent mixture which included a surfactant. At the same time, these species were planted in pots containing Redi-Earth® planting medium (Scotts Company, 14111 Scottslawn Road, Marysville, Ohio 43041) comprising spaghnum peat moss, vermiculite, wetting agent and starter nutrients and treated with postemergence applications of the test chemicals formulated in the same manner. Plants ranged in height from 2 to 18 cm (1- to 4-leaf stage). Treated plants and controls were maintained in a controlled growth environment for 7 to 21 days after which time all species were compared to controls and visually evaluated. Plant response ratings, summarized in Table D, are based on a scale of 0 to 100 where 0 is no effect and 100 is complete control. A dash (-) response means no test result.

In another assay the test system is chickweed. In words: Test D pre-/postemergence herbicide test. Particulars: for Plant response rating: Chickweed, scale 0 to 100; for Plant response rating, Chickweed: scale 0 to 100 (0 no effect, 100 complete control). The class given is in vivo, Stellaria media.
Text: as §1

Another assay has as its system pigweed. Briefly: Test D pre-/postemergence herbicide test. The note with it: for Plant response rating: Postemergence, Pigweed, scale 0 to 100; for Plant response rating, Pigweed: Preemergence, scale 0 to 100 (0 no effect, 100 complete control). The assay is classed as in vivo, Amaranthus retroflexus.
Text: as §1

A further assay has as its system barnyardgrass. In words: Test F flood (paddy) test. Particulars: 21 d, scale 0-100. The class given is in vivo, Echinochloa crus-galli. The text has this:
Three plastic pots (ca. 16-cm diameter) per rate were partially filled with sterilized Tama silt loam soil comprising a 35:50:15 ratio of sand, silt and clay and 2.6% organic matter. Separate plantings for each of the three pots were as follows. Seeds from the U.S. of monochoria (Monochoria vaginalis), sedge, umbrella (small-flower umbrella sedge, Cyperus difformis), bulrush, […] bulrush, Scirpus juncoides), and […] (purple […] coccinea), were planted into one 16-cm pot for each rate. Seeds from the U.S. of flatsedge, rice (rice flatsedge, Cyperus iria), sprangletop, Brdd. (bearded sprangletop, Leptochloa fascicularis), one stand of 9 or 10 water seeded rice seedlings (Rice, W.S. Jap, Oryza sativa cv. 'Japonica-[…]' or Rice, W.S. Ind, 'Indica'), and two stands of 3 or 4 seedlings of rice, transplanted (transplanted rice, Oryza sativa cv. 'Japonica-[…]') were planted into one 16-cm pot for each rate. Seeds from the U.S. of barnyardgrass (Echinochloa crus-galli), […] (common […], Alisma plantago-aquatica), and watergrass, late (late watergrass, Echinochloa oryzicola) were planted into one 16-cm pot for each rate. Plantings were sequential so that crop and weed species were at the 2.0 to 2.5-leaf stage at time of treatment. Potted plants were grown in a greenhouse with day/night temperature settings of 30/27° C., and supplemental balanced lighting was provided to maintain a 16-h photoperiod. Test pots were maintained in the greenhouse until test completion. At time of treatment, test pots were flooded to 3 cm above the soil surface, treated by application of test compounds directly to the paddy water, and then maintained at that water depth for the duration of the test. Effects of treatments on rice and weeds were visually evaluated by comparison to untreated controls after 21 d. Plant response ratings, summarized in Table F, are based on a scale of 0 to 100 where 0 is no effect and 100 is complete control. A dash (-) response means no test result.

Consider `O=C1NCC(c2ccc(F)c(F)c2)C1C(=O)Nc1ccccc1C(F)(F)F` (racemic) [Compound 6], for which the Plant response rating in the assay with buckwheat, wild (Postemergence, 16 g ai/ha) is 0; with buckwheat, wild (Postemergence, 31 g ai/ha) it was 0; in the assay on buckwheat, wild (Postemergence, 62 g ai/ha), 0; in the assay with buckwheat, wild (Postemergence, 125 g ai/ha), 0; in the assay on buckwheat, wild (Postemergence, 250 g ai/ha), 10; with buckwheat, wild (Preemergence, 125 g ai/ha), 0. In addition, the Plant response rating in the assay with buckwheat, wild (Preemergence, 250 g ai/ha) came to 0; with chickweed (Postemergence, 16 g ai/ha) it was 0; in the assay on chickweed (Postemergence, 31 g ai/ha), 0; in the assay with chickweed (Postemergence, 62 g ai/ha), 0; with chickweed (Postemergence, 125 g ai/ha), 10; with chickweed (Postemergence, 250 g ai/ha), 30. Further, the Plant response rating with pigweed (16 g ai/ha) is 0; in the assay with pigweed (31 g ai/ha), 10; in the assay with pigweed (62 g ai/ha) it was 10; in the assay on pigweed (125 g ai/ha), 20; with pigweed (250 g ai/ha), 20. Besides, the “Plant response rating, Buckwheat, Wild” value was 0 with buckwheat, wild (Preemergence, 62 g ai/ha); 0 in the assay with buckwheat, wild (Preemergence, 16 g ai/ha); 0 in the assay on buckwheat, wild (Preemergence, 31 g ai/ha). For the same compound, the “Plant response rating, Pigweed” value with pigweed (62 g ai/ha), in the assay with pigweed (125 g ai/ha), in the assay on pigweed (16 g ai/ha), in the assay with pigweed (31 g ai/ha) and with pigweed (250 g ai/ha) was 0 throughout.

With `O=C1NCC(c2ccc(F)c(C(F)(F)F)c2)C1C(=O)Nc1cccc(F)c1F` (racemic) [Compound 77], the “Plant response rating, Buckwheat, Wild” value with buckwheat, wild (Preemergence, 62 g ai/ha) came to 75; with buckwheat, wild (Preemergence, 31 g ai/ha) it was 0. Further, the Plant response rating is listed as 55 in the assay with buckwheat, wild (Preemergence, 125 g ai/ha); 55 with buckwheat, wild (Preemergence, 250 g ai/ha); 100 with chickweed (Preemergence, 125 g ai/ha); 100 in the assay on chickweed (Preemergence, 250 g ai/ha). In addition, the “Plant response rating, Chickweed” value in the assay with chickweed (Preemergence, 62 g ai/ha) is 90; with chickweed (Preemergence, 31 g ai/ha), 75. Further, the “Plant response rating, Pigweed” value turned out to be 70 with pigweed (62 g ai/ha), 80 in the assay with pigweed (125 g ai/ha), 25 in the assay with pigweed (31 g ai/ha) and 80 in the assay with pigweed (250 g ai/ha).

Take `O=C1NCC(c2ccc(F)c(F)c2)C1C(=O)Nc1cccc(F)c1F` (racemic) [Compound 101]: the “Plant response rating, Barnyardgrass” value in the assay on barnyardgrass (64 g ai/ha) was 60; in the assay on barnyardgrass (125 g ai/ha), 85; in the assay on barnyardgrass (250 g ai/ha), 85; in the assay with barnyardgrass (500 g ai/ha) it was 90.

`O=C1NCC(c2cc(F)c(F)cc2F)C1C(=O)Nc1cccc(F)c1F` (centres unmarked) [Compound 50]: the Plant response rating in the assay on buckwheat, wild (Postemergence, 16 g ai/ha) is 10; in the assay with buckwheat, wild (Postemergence, 31 g ai/ha) it was 10; with buckwheat, wild (Postemergence, 62 g ai/ha) it was 10; in the assay on buckwheat, wild (Postemergence, 125 g ai/ha), 10; with chickweed (Postemergence, 16 g ai/ha), 10; in the assay with chickweed (Postemergence, 31 g ai/ha), 15. The Plant response rating worked out at 20 in the assay with chickweed (Postemergence, 62 g ai/ha); 15 with chickweed (Postemergence, 125 g ai/ha); 0 in the assay on chickweed (Preemergence, 125 g ai/ha); 5 with pigweed (16 g ai/ha); 0 with pigweed (31 g ai/ha); 0 with pigweed (62 g ai/ha). In the assay on pigweed (125 g ai/ha), this compound had a Plant response rating of 10. Besides, the “Plant response rating, Buckwheat, Wild” value in the assay on buckwheat, wild (Preemergence, 62 g ai/ha) is listed as 0; in the assay with buckwheat, wild (Preemergence, 16 g ai/ha) it was 0; with buckwheat, wild (Preemergence, 31 g ai/ha), 0. The “Plant response rating, Chickweed” value with chickweed (Preemergence, 62 g ai/ha) stood at 0; with chickweed (Preemergence, 16 g ai/ha) it was 0; in the assay on chickweed (Preemergence, 31 g ai/ha), 0. Moreover, the “Plant response rating, Pigweed” value in the assay on pigweed (62 g ai/ha) came out at 25; with pigweed (125 g ai/ha), 5; in the assay with pigweed (16 g ai/ha), 10; in the assay on pigweed (31 g ai/ha) it was 10.

As to `O=C1NCC(c2ccc(Cl)c(F)c2)C1C(=O)Nc1cccc(F)c1F` (centres unmarked) [Compound 52], the Plant response rating with buckwheat, wild (Postemergence, 16 g ai/ha) was 0; in the assay on buckwheat, wild (Postemergence, 31 g ai/ha), 0; in the assay on buckwheat, wild (Postemergence, 62 g ai/ha) it was 0; in the assay with buckwheat, wild (Postemergence, 125 g ai/ha), 0; in the assay on buckwheat, wild (Postemergence, 250 g ai/ha), 0; in the assay with buckwheat, wild (Preemergence, 125 g ai/ha), 10. The Plant response rating in the assay on buckwheat, wild (Preemergence, 250 g ai/ha) is listed as 10; in the assay on chickweed (Postemergence, 16 g ai/ha), 0; with chickweed (Postemergence, 31 g ai/ha) it was 0; in the assay on chickweed (Postemergence, 62 g ai/ha), 10; in the assay on chickweed (Postemergence, 125 g ai/ha), 15; in the assay with chickweed (Postemergence, 250 g ai/ha), 25. Also, the Plant response rating with pigweed (16 g ai/ha) is given as 0; with pigweed (31 g ai/ha), 0; in the assay with pigweed (62 g ai/ha), 0; with pigweed (125 g ai/ha) it was 30; with pigweed (250 g ai/ha) it was 40. In addition, the “Plant response rating, Buckwheat, Wild” value with buckwheat, wild (Preemergence, 62 g ai/ha) came to 0; in the assay with buckwheat, wild (Preemergence, 16 g ai/ha), 0; in the assay with buckwheat, wild (Preemergence, 31 g ai/ha), 0. The “Plant response rating, Pigweed” value was 10 in the assay on pigweed (62 g ai/ha); 10 in the assay on pigweed (125 g ai/ha); 0 in the assay with pigweed (16 g ai/ha); 10 in the assay on pigweed (31 g ai/ha); 15 in the assay with pigweed (250 g ai/ha).

Take `O=C1NCC(c2ccc(C(F)(F)F)cc2)C1C(=O)Nc1ccccc1F` (centres unmarked) [Compound 231]: the Plant response rating in the assay on buckwheat, wild (Postemergence, 31 g ai/ha) amounted to 0; in the assay on buckwheat, wild (Postemergence, 62 g ai/ha), 0; with buckwheat, wild (Postemergence, 125 g ai/ha) it was 0; with buckwheat, wild (Postemergence, 250 g ai/ha), 0; in the assay on buckwheat, wild (Preemergence, 250 g ai/ha), 10; in the assay on chickweed (Postemergence, 31 g ai/ha) it was 25. Further, the Plant response rating in the assay on chickweed (Postemergence, 62 g ai/ha) was 80; with chickweed (Postemergence, 125 g ai/ha), 80; in the assay with chickweed (Postemergence, 250 g ai/ha) it was 80; in the assay with chickweed (Preemergence, 250 g ai/ha), 90; in the assay with pigweed (31 g ai/ha) it was 20; in the assay with pigweed (62 g ai/ha), 35. Further, the Plant response rating in the assay on pigweed (125 g ai/ha) is 35; in the assay on pigweed (250 g ai/ha), 45. Also, the “Plant response rating, Buckwheat, Wild” value in the assay on buckwheat, wild (Preemergence, 62 g ai/ha) is on record as 0; in the assay with buckwheat, wild (Preemergence, 125 g ai/ha) it was 0; in the assay with buckwheat, wild (Preemergence, 31 g ai/ha), 0. Also, the “Plant response rating, Chickweed” value with chickweed (Preemergence, 62 g ai/ha) is listed as 85; in the assay with chickweed (Preemergence, 125 g ai/ha), 95; in the assay with chickweed (Preemergence, 31 g ai/ha) it was 75. The “Plant response rating, Pigweed” value in the assay with pigweed (62 g ai/ha) is on record as 50; in the assay with pigweed (125 g ai/ha), 60; in the assay with pigweed (31 g ai/ha), 50; in the assay with pigweed (250 g ai/ha) it was 80.

The record behind these values is US10294202B2, “Pyrrolidinones as herbicides” (FMC Corporation, priority 2013, dated 2019).
